Laboratory results reported in patent publication US8642647B2, “N1-benzo[1,3]dioxol-5-ylmethyl-N2-substituted biguanide derivative, preparation method thereof, and pharmaceutical composition containing same” (Hanall Biopharma Co., Ltd., priority 2008, dated 2014).

Experiments:
Type in all cases: cell-based
HepG2 cells [1] = assay: Measurement of cholesterol synthesis inhibitory ability; conditions: 24 hours, HepG2 cells, content of cholesterol formed, lower value = stronger inhibition; for Cholesterol (100 μM) aver.: 100 μM compound; for Cholesterol (500 μM) aver.: 500 μM compound
Experimental: (§1) 2 mM metformin was used as a comparative compound for each of the plates (control group).
A cholesterol synthesis inhibitory ability, which is an important function of AMPK (AMP-activated protein kinase), was measured using HepG2 cells (ATCC: American Type Culture Collection) as a hepatic cell model according to the following procedure.
The hepatic cell model HepG2 cells were cultured in 1% serum-containing media (DMEM (Gibco), FBS (Gibco)) for 24 hours, and then treated with 100 μM or 500 μM of each of the compounds prepared in Examples for 24 hours. Then, the cells were disrupted with a lysis solution (0.1 M potassium phosphate, pH 7.4, 0.05 M NaCl, 5 mM cholic acid, 0.1% Triton X-100 (Sigma)). To the disrupted cells was added the same volume of a reaction solution (2 U/ml of a cholesterol oxidizing agent, 2 U/ml of a peroxidase, 0.2 U/ml of a cholesterol esterase, and 300 μM of Amplex red as a fluorescent factor (Molecular Probe)), which was allowed to react at 37° C. for 30 minutes. After completion of the reaction, the content of cholesterol formed in the cell lysates was measured at a wavelength of 560/590 nm (ex/em) using a fluorescence microscope.
A lower measurement value means an increased cholesterol synthesis inhibitory ability.

HepG2 cells [2] = assay: Measurement of triglyceride synthesis inhibitory ability; conditions: 24 hours, HepG2 cells, content of triglyceride formed, lower value = stronger inhibition; for Triglyceride (100 μM) aver.: 100 μM compound; for Triglyceride (500 μM) aver.: 500 μM compound
Experimental: as §1
HepG2 cells (ATCC: American Type Culture Collection) were cultured in 1% serum-containing media (DMEM (Gibco), FBS (Gibco)) for 24 hours, and then treated with 100 μM or 500 μM of each of the compounds prepared in Examples for 24 hours. Then, the cells were disrupted with a lysis solution (0.1 M potassium phosphate, pH 7.4, 0.05 M NaCl, 5 mM cholic acid, 0.1% Triton X-100). To the disrupted cells was added the same volume of a reaction solution (0.76 U/ml of a glycerol kinase (Asan Pharmaceutical Co., Ltd.), […] of a peroxidase (Asan Pharmaceutical Co., Ltd.), 22.2 U/ml of a glycerol oxidizing agent (Asan Pharmaceutical Co., Ltd.), and 300 μM of Amplex red as a fluorescent factor (Molecular Probe)), which was allowed to react at 37° C. for 30 minutes. After completion of the reaction, the content of triglyceride formed in the cell lysates was measured at a wavelength of 560/590 nm (ex/em) using a fluorescence microscope.
A lower measurement value means an increased triglyceride synthesis inhibitory ability.

HepG2 cells [3] = assay: Measurement of gluconeogenesis inhibitory ability; conditions: Homo sapiens, HepG2, 24 h, 100 μM compound, 24 hours, HepG2 cells; content of glucose formed from 14C-lactate; lower value = stronger inhibition; read-out: Gluconeogenesis inhibition (100 μM) aver.
Experimental: as §1
HepG2 cells (ATCC: American Type Culture Collection) were cultured in 10% serum-containing high glucose media, transferred to no serum-containing low glucose media (DMEM (Gibco), FBS (Gibco)), and then treated with 100 μM of each of the compounds for 24 hours. Then, the cells were treated with 0.5 μCi ^14C-lactate (Amersham Pharmacia) and 10 mM L-lactate (Sigma), and cultured for 4 hours. After cultivation, the media were removed therefrom, and the cells were washed with PBS, treated with 0.1N NaOH and kept at room temperature for 1 hour. Then, the cells were neutralized with 1N HCl, and the content of glucose formed in the cells was measured with a liquid scintillation counter.
A lower measurement value means an increased gluconeogenesis inhibitory ability.

`Cl.N=C(N)NC(=Nc1ccc2c(c1)Cc1ccccc1-2)NCc1ccc2c(c1)OCO2` [Example 13, N1-benzo[1,3]dioxol-5-ylmethyl-N2-(2-fluorenyl)biguanide hydrochloride] was tested, and the “Cholesterol (100 μM) aver.” value (HepG2 cells [1]) was 31.42, the “Triglyceride (100 μM) aver.” value (HepG2 cells [2]) was 9.22 and the activity at 100 µM (HepG2 cells [3]) was 2.15%.
`Cl.N=C(N)NC(=Nc1cccc(C(F)(F)F)c1)NCc1ccc2c(c1)OCO2` [Example 10, N1-benzo[1,3]dioxol-5-ylmethyl-N2-(3-trifluoromethylphenyl)biguanide hydrochloride] was tested, and the “Cholesterol (100 μM) aver.” value (HepG2 cells [1]) was 33.41, the “Triglyceride (100 μM) aver.” value (HepG2 cells [2]) was 11.52 and the activity at 100 µM (HepG2 cells [3]) was 2.76%.
With `CCCN=C(NCc1ccc2c(c1)OCO2)NC(=N)N.Cl` [Example 16, N1-benzo[1,3]dioxol-5-ylmethyl-N2-propyl biguanide hydrochloride] the “Cholesterol (100 μM) aver.” value (HepG2 cells [1]) was 38.66, the “Triglyceride (100 μM) aver.” value (HepG2 cells [2]) was 32.56 and the activity at 100 µM (HepG2 cells [3]) was 33.1%.
`CCCCCN=C(NCc1ccc2c(c1)OCO2)NC(=N)N.Cl` [Example 40, N1-benzo[1,3]dioxol-5-ylmethyl-N2-pentyl biguanide hydrochloride] was tested, and the “Cholesterol (100 μM) aver.” value (HepG2 cells [1]) was 57.36, the “Cholesterol (500 μM) aver.” value (HepG2 cells [1]) was 27.89 and the “Triglyceride (100 μM) aver.” value (HepG2 cells [2]) was 101.4. For the same compound, the “Triglyceride (500 μM) aver.” value (HepG2 cells [2]) was 50.00 and the activity at 100 µM (HepG2 cells [3]) was 84.6%.
`Cl.N=C(N)NC(=NC1CCCC1)NCc1ccc2c(c1)OCO2` [Example 19, N1-benzo[1,3]dioxol-5-ylmethyl-N2-cyclopentyl biguanide hydrochloride] was tested, and the “Cholesterol (100 μM) aver.” value (HepG2 cells [1]) was 57.58, the “Cholesterol (500 μM) aver.” value (HepG2 cells [1]) was 27.93 and the “Triglyceride (100 μM) aver.” value (HepG2 cells [2]) was 100.59. The “Triglyceride (500 μM) aver.” value (HepG2 cells [2]) was 80.60 and the activity at 100 µM (HepG2 cells [3]) was 92.7%.
With `Cl.N=C(N)NC(=NC1CC1)NCc1ccc2c(c1)OCO2` [Example 38, N1-benzo[1,3]dioxol-5-ylmethyl-N2-cyclopropyl biguanide hydrochloride] the “Cholesterol (100 μM) aver.” value (HepG2 cells [1]) was 57.32, the “Cholesterol (500 μM) aver.” value (HepG2 cells [1]) was 47.06 and the “Triglyceride (100 μM) aver.” value (HepG2 cells [2]) was 95.00. The “Triglyceride (500 μM) aver.” value (HepG2 cells [2]) was 61.43 and the activity at 100 µM (HepG2 cells [3]) was 78.9%.
In the case of `CC(C)(C)c1ccc(N=C(NCc2ccc3c(c2)OCO3)NC(=N)N)cc1.Cl` [Example 33, N1-benzo[1,3]dioxol-5-ylmethyl-N2-(4-t-butylphenyl)biguanide hydrochloride], the “Cholesterol (100 μM) aver.” value (HepG2 cells [1]) is reported as 20.42, the “Cholesterol (500 μM) aver.” value (HepG2 cells [1]) is reported as 30.52 and the “Triglyceride (100 μM) aver.” value (HepG2 cells [2]) is reported as 27.40. The “Triglyceride (500 μM) aver.” value (HepG2 cells [2]) was 7.08 and the activity at 100 µM (HepG2 cells [3]) was 2.35%.
For `COCCOCCOCCN=C(NCc1ccc2c(c1)OCO2)NC(=N)N.Cl` [Example 46, N1-benzo[1,3]dioxol-5-ylmethyl-N2-(2-(2-(2-methoxyethoxy)ethoxy)ethyl)biguanide hydrochloride], the “Cholesterol (100 μM) aver.” value (HepG2 cells [1]) was 90.31, the “Cholesterol (500 μM) aver.” value (HepG2 cells [1]) was 91.68 and the “Triglyceride (100 μM) aver.” value (HepG2 cells [2]) was 89.69. For the same compound, the “Triglyceride (500 μM) aver.” value (HepG2 cells [2]) was 93.41 and the activity at 100 µM (HepG2 cells [3]) was 101%.
With `Cl.N=C(N)NC(=Nc1ccccc1)NCc1ccc2c(c1)OCO2` [Example 45, N1-benzo[1,3]dioxol-5-ylmethyl-N2-phenyl biguanide hydrochloride] the “Cholesterol (100 μM) aver.” value (HepG2 cells [1]) was 77.21, the “Cholesterol (500 μM) aver.” value (HepG2 cells [1]) was 23.24 and the “Triglyceride (100 μM) aver.” value (HepG2 cells [2]) was 96.12. For the same compound, the “Triglyceride (500 μM) aver.” value (HepG2 cells [2]) was 35.45 and the activity at 100 µM (HepG2 cells [3]) was 117%.
In the case of `CC(C)N=C(NCc1ccc2c(c1)OCO2)NC(=N)N.Cl` [Example 22, N1-benzo[1,3]dioxol-5-ylmethyl-N2-isopropyl biguanide hydrochloride], the “Cholesterol (100 μM) aver.” value (HepG2 cells [1]) is reported as 63.99, the “Cholesterol (500 μM) aver.” value (HepG2 cells [1]) is reported as 34.97 and the “Triglyceride (100 μM) aver.” value (HepG2 cells [2]) is reported as 78.51. For the same compound, the “Triglyceride (500 μM) aver.” value (HepG2 cells [2]) was 60.13 and the activity at 100 µM (HepG2 cells [3]) was 83%.
